Measurements reported in patent publication US12427144B2, “Compounds and methods for the targeted degradation of androgen receptor” (Arvinas Operations, Inc., priority 2019, dated 2025).

Target: T1, Androgen Receptor (AR) (Homo sapiens, UniProt P10275)
T1 construct: endogenous in cells; host or cells: VCaP
T1 sequence (P10275 1-920): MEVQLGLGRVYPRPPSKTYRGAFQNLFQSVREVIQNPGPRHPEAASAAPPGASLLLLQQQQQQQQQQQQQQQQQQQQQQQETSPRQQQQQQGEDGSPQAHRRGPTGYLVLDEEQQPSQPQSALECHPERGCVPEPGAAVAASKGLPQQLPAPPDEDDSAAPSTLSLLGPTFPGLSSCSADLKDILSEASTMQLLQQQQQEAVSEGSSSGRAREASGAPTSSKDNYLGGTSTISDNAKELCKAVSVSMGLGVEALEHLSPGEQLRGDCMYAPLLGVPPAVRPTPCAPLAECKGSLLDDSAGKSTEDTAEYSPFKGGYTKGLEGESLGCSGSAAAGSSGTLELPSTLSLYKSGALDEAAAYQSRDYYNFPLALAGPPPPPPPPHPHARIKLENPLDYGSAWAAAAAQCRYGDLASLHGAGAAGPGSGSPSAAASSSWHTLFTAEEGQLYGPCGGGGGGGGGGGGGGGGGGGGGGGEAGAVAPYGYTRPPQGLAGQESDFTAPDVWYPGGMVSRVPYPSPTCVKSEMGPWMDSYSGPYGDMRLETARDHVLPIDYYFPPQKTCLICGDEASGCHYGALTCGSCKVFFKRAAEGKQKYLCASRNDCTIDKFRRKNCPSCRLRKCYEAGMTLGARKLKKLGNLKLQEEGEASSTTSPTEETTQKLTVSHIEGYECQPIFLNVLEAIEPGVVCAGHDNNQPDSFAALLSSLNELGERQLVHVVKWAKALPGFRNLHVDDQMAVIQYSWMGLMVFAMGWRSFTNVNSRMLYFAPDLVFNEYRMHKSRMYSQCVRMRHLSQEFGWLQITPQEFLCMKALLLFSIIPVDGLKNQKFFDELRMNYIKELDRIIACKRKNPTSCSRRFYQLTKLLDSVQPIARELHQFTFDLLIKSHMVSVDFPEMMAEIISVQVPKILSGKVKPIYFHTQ
Test: AR immunofluorescence staining, high content imager, VCaP cells
Assay type: cell-based
Conditions: for DC50: AR degradation by immunofluorescence; for Dmax: maximal AR degradation
Protocol: AR Immunofluorescence Staining of Cells for the High Content Imager was performed as follows: Following treatment of the cells with compound (using the central 60 wells of a 96-well plate), media was removed by aspiration, followed by addition of 50 μL per well of 4% paraformaldehyde (PFA) in PBS supplemented with 2 mM MgCl2 and 2 mM CaCl2. Fixed cells were incubated at RT for 15 minutes. For particularly low adherence cell lines (e.g., VCaP), a 2× solution of 8% PFA was added directly to wells instead. Cells were washed once with 200 μL PBS/well. To permeabilize cells 50 μL/well of 0.1% Triton X-100 in PBS was added and incubated for 5 minutes. Cells were washed once with 200 μL PBSS/well. 100 μL/well of Licor Odyssey Blocking Buffer was added for 1 hour at 20° C. Wells were aspirated and AR antibody (1:1000 in Licor Odyssey blocking buffer; 50 μL/well; CST 5153s) was added. Plates were incubated overnight at 4° C. Plates were washed 3 times with 200 EL PBS/well. The appropriate secondary antibody was added (50 μL/well; diluted in Licor Odyssey blocking buffer) and incubated for 1 hour at RT in the dark as prepared below using Anti-rabbit FITC (1:5000; […]) and Phalloidin-Alexafluor 648 (1:500; […]). Cells were washed once with 200 μL PBS/well. 50 μL DAPI or Hoechst 33342 diluted 1:1000 in Licor Odyssey blocking buffer was added to the wells. Cells were washed 3 times with 200 μL PBS/well. The plates were covered with a clear plastic sealer and refrigerated in the dark until ready to analyze. The cells were analyzed using a Molecular Devices IXM high content imager and analyzed using Molecular Devices metaXpress software suite.

SMILES	DC50 [nM]	Dmax [%]
Cc1cc(O[C@H]2C(C)(C)[C@H](NC(=O)c3ccc(N4CCC(CC5CCN(C67CC(C(=O)NC8CCC(=O)NC8=O)(C6)C7)CC5)CC4)cc3)C2(C)C)cc(C)c1C#N (mixture of isomers) [Compound 70, rac-N-(2,6-dioxopiperidin-3-yl)-3-(4-{[1-(4-{[(1r,3r)-3-(4-cyano-3,5-dimethylphenoxy)-2,2,4,4-tetramethylcyclobutyl]carbamoyl}phenyl)piperidin-4-yl]methyl}piperidin-1-yl)bicyclo[1.1.1]pentane-1-carboxamide]	< 1	< 50
Cc1cc(O[C@H]2C(C)(C)[C@H](NC(=O)c3ccc(N4CCO[C@H](CN5CCN(c6ccc(C(=O)N[C@@H]7CCC(=O)NC7=O)c(F)c6)CC5)C4)cc3)C2(C)C)cc(C)c1C#N (single isomer, unassigned) [Compound 49]	< 1	≥ 70
COc1cc(O[C@H]2C(C)(C)[C@H](NC(=O)c3ccc(N4CCC(CN5CCN(c6ccc(C(=O)NC7CCC(=O)NC7=O)c(F)c6)CC5)CC4)cc3)C2(C)C)ccc1C#N (stereo partly drawn) [Compound 1, 4-(4-((1-(4-(((1R,3R)-3-(4-cyano-3-methoxyphenoxy)-2,2,4,4-tetramethylcyclobutyl)carbamoyl)phenyl)piperidin-4-yl)methyl)piperazin-1-yl)-N-(2,6-dioxopiperidin-3-yl)-2-fluorobenzamide]	< 1	≥ 70
COc1cc(O[C@H]2C(C)(C)[C@H](NC(=O)c3ccc(N4CCC(CN5CCN(c6ccc(C(=O)N[C@@H]7CCC(=O)NC7=O)c(F)c6)CC5)CC4)cc3)C2(C)C)ccc1C#N [Compound 14, 4-(4-((1-(4-(((1R,3R)-3-(4-cyano-3-methoxyphenoxy)-2,2,4,4-tetramethylcyclobutyl)carbamoyl)phenyl)piperidin-4-yl)methyl)piperazin-1-yl)-N—((R)-2,6-dioxopiperidin-3-yl)-2-fluorobenzamide]	1 to 10	< 50
CC1(C)[C@H](NC(=O)c2ccc(N3CCC(CN4CCN(c5ccc(C(=O)NC6CCC(=O)NC6=O)c(F)c5)CC4)CC3)nn2)C(C)(C)[C@H]1Oc1ccc(C#N)c(Cl)c1 (stereo partly drawn) [Compound 17, N-((1R,3R)-3-(3-chloro-4-cyanophenoxy)-2,2,4,4-tetramethylcyclobutyl)-6-(4-((4-(4-((2,6-dioxopiperidin-3-yl)carbamoyl)-3-fluorophenyl)piperazin-1-yl)methyl)piperidin-1-yl)pyridazine-3-carboxamide]	< 1	50 to 70
CC1(C)[C@H](NC(=O)c2cnc(N3CCC(CN4CCN(c5ccc(C(=O)NC6CCC(=O)NC6=O)c(F)c5)CC4)CC3)cn2)C(C)(C)[C@H]1Oc1ccc(C#N)c(Cl)c1 (stereo partly drawn) [Compound 18, N-((1R,3R)-3-(3-chloro-4-cyanophenoxy)-2,2,4,4-tetramethylcyclobutyl)-5-(4-((4-(4-((2,6-dioxopiperidin-3-yl)carbamoyl)-3-fluorophenyl)piperazin-1-yl)methyl)piperidin-1-yl)pyrazine-2-carboxamide]	1 to 10	50 to 70
CC1(C)[C@H](NC(=O)c2ccc(N3CCC(CN4CCN(c5ccc(C(=O)NC6CCC(=O)NC6=O)c(F)c5)CC4)CC3)cc2)C(C)(C)[C@H]1Oc1ccc(C#N)c(Cl)c1 (stereo partly drawn) [Compound 19, 4-(4-((1-(4-(((1R,3R)-3-(3-chloro-4-cyanophenoxy)-2,2,4,4-tetramethylcyclobutyl)carbamoyl)phenyl)piperidin-4-yl)methyl)piperazin-1-yl)-N-(2,6-dioxopiperidin-3-yl)-2-fluorobenzamide]	< 1	≥ 70
Cc1cc(O[C@H]2C(C)(C)[C@H](NC(=O)c3ccc(N4CCC(CN5CCN(c6ccc(C(=O)NC7CCC(=O)NC7=O)c(F)c6)CC5)CC4)cc3)C2(C)C)cc(C)c1C#N (stereo partly drawn) [Compound 20, 4-(4-((1-(4-(((1R,3R)-3-(4-cyano-3,5-dimethylphenoxy)-2,2,4,4-tetramethylcyclobutyl)carbamoyl)phenyl)piperidin-4-yl)methyl)piperazin-1-yl)-N-(2,6-dioxopiperidin-3-yl)-2-fluorobenzamide]	< 1	≥ 70
COc1cc(O[C@H]2C(C)(C)[C@H](NC(=O)c3ccc(N4CCC(CN5CCN(c6ccc(C(=O)N[C@H]7CCC(=O)NC7=O)c(F)c6)CC5)CC4)cc3)C2(C)C)ccc1C#N [Compound 21, 4-(4-((1-(4-(((1R,3R)-3-(4-cyano-3-methoxyphenoxy)-2,2,4,4-tetramethylcyclobutyl)carbamoyl)phenyl)piperidin-4-yl)methyl)piperazin-1-yl)-N—((S)-2,6-dioxopiperidin-3-yl)-2-fluorobenzamide]	< 1	≥ 70
N#Cc1ccc(O[C@H]2CC[C@H](NC(=O)c3ccc(N4CCC(CN5CCN(c6ccc(C(=O)NC7CCC(=O)NC7=O)nc6)CC5)CC4)nn3)CC2)cc1Cl (stereo partly drawn) [Compound 22, N-((1R,4R)-4-(3-chloro-4-cyanophenoxy)cyclohexyl)-6-(4-((4-(6-((2,6-dioxopiperidin-3-yl)carbamoyl)pyridin-3-yl)piperazin-1-yl)methyl)piperidin-1-yl)pyridazine-3-carboxamide]	< 1	≥ 70
N#Cc1ccc(O[C@H]2CC[C@H](NC(=O)c3ccc(N4CCC(CN5CCN(c6ccc(C(=O)NC7CCC(=O)NC7=O)cc6)CC5)CC4)nn3)CC2)cc1Cl (stereo partly drawn) [Compound 23, N-[4-(3-chloro-4-cyano-phenoxy)cyclohexyl]-6-[4-[[4-[4-[(2,6-dioxo-3-piperidyl)carbamoyl]phenyl]piperazin-1-yl]methyl]-1-piperidyl]pyridazine-3-carboxamide]	< 1	≥ 70
CC(C)N(CC1CCN(c2cnc(C(=O)N[C@H]3CC[C@H](Oc4ccc(C#N)c(Cl)c4)CC3)cn2)CC1)[C@H]1C[C@H](Oc2ccc(C(=O)NC3CCC(=O)NC3=O)nc2)C1 (stereo partly drawn) [Compound 24, N-[4-(3-chloro-4-cyano-phenoxy)cyclohexyl]-5-[4-[[[3-[[6-[(2,6-dioxo-3-piperidyl)carbamoyl]-3-pyridyl]oxy]cyclobutyl]-isopropyl-amino]methyl]-1-piperidyl]pyrazine-2-carboxamide]	< 1	≥ 70
CC(C)N(CC1CCN(c2cnc(C(=O)N[C@H]3CC[C@H](Oc4ccc(C#N)c(Cl)c4)CC3)cn2)CC1)[C@H]1C[C@H](Oc2ccc(C(=O)NC3CCC(=O)NC3=O)c(F)c2)C1 (stereo partly drawn) [Compound 25, N-((1R,4R)-4-(3-chloro-4-cyanophenoxy)cyclohexyl)-5-(4-((((1R,3R)-3-(4-((2,6-dioxopiperidin-3-yl)carbamoyl)-3-fluorophenoxy)cyclobutyl)(isopropyl)amino)methyl)piperidin-1-yl)pyrazine-2-carboxamide]	< 1	50 to 70
N#Cc1ccc(O[C@H]2CC[C@H](NC(=O)c3ccc(N4CCC(CN5CCN(c6ccc(C(=O)NC7CCC(=O)NC7=O)c(F)c6)CC5)CC4)nn3)CC2)cc1Cl (stereo partly drawn) [Compound 26, N-((1R,4R)-4-(3-chloro-4-cyanophenoxy)cyclohexyl)-6-(4-((4-(4-((2,6-dioxopiperidin-3-yl)carbamoyl)-3-fluorophenyl)piperazin-1-yl)methyl)piperidin-1-yl)pyridazine-3-carboxamide]	< 1	≥ 70
CC(C)N(CC1CCN(c2cnc(C(=O)N[C@H]3CC[C@H](Oc4ccc(C#N)c(Cl)c4)CC3)cn2)CC1)[C@H]1C[C@H](Oc2ccc(C(=O)NC3CCC(=O)NC3=O)cc2)C1 (stereo partly drawn) [Compound 27, N-[4-(3-chloro-4-cyano-phenoxy)cyclohexyl]-5-[4-[[[3-[4-[(2,6-dioxo-3-piperidyl)carbamoyl]phenoxy]cyclobutyl]-isopropyl-amino]methyl]-1-piperidyl]pyrazine-2-carboxamide]	< 1	≥ 70
